Patent CN117567270A, “一种醇胺-壬二酸超分子离子盐及其制备和应用” (Jiangnan University, priority 2023, dated 2024)

Columns and labels:
[1] = background statement; cited from earlier work
[2] = tested on: Pseudomonas aeruginosa [铜绿假单胞菌]; test: Antibacterial challenge test (single inoculation, 28 d), Pseudomonas aeruginosa; assay type: cell-based; conditions: for increase of bacterial count: 14~28 d; for sterilising effect (compared with control group): 7 d, control group: azelaic acid neutralised to pH 7.0
[3] = tested on: Escherichia coli [大肠埃希氏菌]; test: Antibacterial challenge test (single inoculation, 28 d), Escherichia coli; assay type: cell-based; conditions: for increase of bacterial count: 14~28 d; for sterilising effect (compared with control group): 7 d, control group: azelaic acid neutralised to pH 7.0
[4] = tested on: human skin stratum corneum [人体皮肤角质层]; test: Moisturising performance test (skin water content by capacitance method); assay type: in vivo; conditions: toner with azelaic acid mass fraction 0.2%; for water content of human skin: 1 h after application; for moisturising ability (compared with control group): long time; for water loss of skin (compared with control group): longer time; for water replenishing ability (compared with control group): short time
[5] = tested on: Staphylococcus aureus [金黄色葡萄球菌]; test: Antibacterial challenge test (single inoculation, 28 d), Staphylococcus aureus; assay type: cell-based; conditions: 14~28 d
[6] = tested on: Escherichia coli, Pseudomonas aeruginosa and Staphylococcus aureus [大肠埃希氏菌、铜绿假单胞菌和金黄色葡萄球菌]; test: Antibacterial challenge test, overall result; assay type: cell-based; conditions: for antibacterial challenge test passed: criterion: log decline at 14 d not less than 2.0 and no rise 14~28 d
[7] = Storage stability of the salt and its water dilutions; assay type: physicochemical; conditions: 3 months, undiluted and diluted 1, 5, 10, 20, 50 times with water
[8] = High/low temperature cycling of the salt and its water dilutions; assay type: physicochemical; conditions: 15 cycles -5~40℃; undiluted and diluted 1, 5, 10, 20, 50 times with water

Row | Compound | solubility in water [1] | increase of bacterial count [2] | increase of bacterial count [3] | water content of human skin [4] | increase of bacterial count [5] | antibacterial challenge test passed [6] | sterilising effect (compared with control group) [2] | sterilising effect (compared with control group) [3] | moisturising ability (compared with control group) [4] | water loss of skin (compared with control group) [4] | water replenishing ability (compared with control group) [4] | short-term antibacterial effect compared with azelaic acid [6] | precipitation of insolubles and colour change ([7]; 45℃ oven) | precipitation of insolubles and colour change ([7]; room temperature, natural light) | precipitation of insolubles and colour change [8]
1 | O=C(O)CCCCCCCC(=O)O [壬二酸, reference compound] | 很低 | 不增加 | 不增加 | 明显上升 | 不增加 | 通过抗菌挑战测试 | – | – | – | – | – | – | – | – | –
2 | O=C(O)CCCCCCCC(=O)O.OCCN(CCO)CCO.OCCN(CCO)CCO [实施例1, 三乙醇胺-壬二酸超分子离子盐] | – | 不增加 | 不增加 | 明显上升 | 不增加 | – | 更加优异 | 更加优异 | 更加优异 | 较为缓慢 | 更加优异 | 优于壬二酸 | – | – | –
3 | NCC(O)CO.NCC(O)CO.O=C(O)CCCCCCCC(=O)O [实施例2, 氨基丙二醇-壬二酸超分子离子盐] | – | 不增加 | 不增加 | 明显上升 | 不增加 | 通过抗菌挑战测试 | 更加优异 | 更加优异 | 更加优异 | 较为缓慢 | 更加优异 | 优于壬二酸 | 无不溶物析出且无颜色变化 | 无不溶物析出且无颜色变化 | 无不溶物析出且无颜色变化
4 | CC(C)(N)CO.O=C(O)CCCCCCCC(=O)O [实施例3, 氨甲基丙醇-壬二酸超分子离子盐] | – | 不增加 | 不增加 | 明显上升 | 不增加 | 通过抗菌挑战测试 | 更加优异 | 更加优异 | 更加优异 | 较为缓慢 | 更加优异 | 优于壬二酸 | – | – | –
